The text below walks through data of US11344523B2, “Composition for use in treating rotavirus infection” (Devenish Nutrition Limited, priority 2016, dated 2022).

The test system of test [1] is Porcine Rotavirus. In words: Virucidal effect on porcine rotavirus in primary pig kidney cells. The test is classed as cell-based. The following applies: total carboxylic acid concentration of 200 mM; for Result Replicate 2: controls PBS −5, ETHANOL −4; for Result Replicate 3: controls PBS −5, ETHANOL −5. The protocol: (§1) Carboxylic acids were obtained from David Garnett of Pathway Intermediates Ltd or from Sigma-Aldrich Co. LLC; and compositions were prepared in a Class II cabinet at room temperature in Hank's Balanced Salt Solution (Thermo Fisher Scientific Inc.) or ethanol by vortexing strongly to emulsify at a stock concentration of 1M. Stock concentrations were diluted to working concentrations e.g. of […] by serial dilution using Minimum Essential Medium (MEM) cell culture medium (Thermo Fisher Scientific Inc.) containing 2 mM L-Glutamine (Gibco Life Technologies Ltd.), and 100 μg/500 ml gentamycin (Lonza Group Ltd.).
A primary pig kidney (PPK) cell line was sourced from a kidney of a sacrificed piglet from the Agri-Food and Biosciences Institute (AFBI Hillsborough, UK). The kidney tissue was trypsinised to create a PPK cell line, which was maintained in Minimum Essential Medium (MEM) cell culture medium (Thermo Fisher Scientific Inc.) containing 2 mM L-Glutamine (Gibco Life Technologies Ltd.), 10% foetal calf serum (PAN-Biotech GmbH), and 100 μg/500 ml gentamycin (Lonza Group Ltd.).
(§2) In general, cells were seeded as at a density of 0.313e4-5.000e4 cells per 1 ml of cell suspension in growth medium, dispensed in to a SPL 24-Well Cell Culture Plate (SPL Life Sciences Co., Ltd.) in replicates of 3, each containing Academy Circular Cover Slips (Academy Science) and incubated overnight at 37° C. at 5% CO2. The growth medium was removed and replaced with 1 ml of Minimum Essential Medium (MEM) cell culture medium (Thermo Fisher Scientific Inc.) containing 2 mM L-Glutamine (Gibco Life Technologies Ltd.), and 100 μg/500 ml gentamycin (Lonza Group Ltd.) for treatment.
(§3) Porcine rotavirus was PROSYSTEM® ROTA PORCINE ROTAVIRUS VACCINE (Merck Animal Health).
Prior to treatment, the cells and coverslips were washed three times with Minimum Essential Medium (MEM) cell culture medium (Thermo Fisher Scientific Inc.) containing 2 mM L-Glutamine (Gibco Life Technologies Ltd.), and 100 μg/500 ml gentamycin (Lonza Group Ltd.). 100 μl of the virus at a titre of 10^9 TCID50/100 μl by the Reed-Muench method, and 100 μl of the treatment samples, were incubated for 30 mins at 37° C. at 5% CO2 The reaction was stopped by adding 800 μl of Minimum Essential Medium (MEM) cell culture medium (Thermo Fisher Scientific Inc.) containing 2 mM L-Glutamine (Gibco Life Technologies Ltd.), and 100 μg/500 ml gentamycin (Lonza Group Ltd.). Each treatment/virus was titrated out, initially 100 μl of each treatment was added to 900 μls of Minimum Essential Medium (MEM) cell culture medium (Thermo Fisher Scientific Inc.) containing 2 mM L-Glutamine (Gibco Life Technologies Ltd.), and 100 μg/500 ml gentamycin (Lonza Group Ltd.) to prepare a 10^−1 dilution. The 10^−1 dilution was then diluted in serial dilutions down to 10^−6 in the same medium 100 μl of media was then added to each appropriate well in replicates of 3 and incubated for 36 hours at 37° C. at 5% CO2 Ethanol or PBS were used as control treatments. Untreated cells were used as negative controls.
After incubation, coverslips were harvested. Each slip was harvested by lifting out of the medium with forceps then rinsing and fixing by dipping sequentially into glass universal bottles of PBS, acetone, and lastly acetone. The slip was then placed cells side up in a glass Petri dish of acetone in a Class II cabinet at room temperature for 10 minutes. […]

Test [2] relates to infectious bovine rhinotracheitis virus (IBRV). Description: Virucidal effect on IBRV, virus/treatment titration read by immunofluorescence. It counts as cell-based, Infectious bovine rhinotracheitis virus (Bovine Herpes 1). The following applies: 100 mM. On the procedure: as §1
MDBK cells were obtained from ECACC and were maintained in Minimum Essential Medium (MEM) cell culture medium (Thermo Fisher Scientific Inc.) containing 2 mM L-Glutamine (Gibco Life Technologies Ltd.), 10% foetal calf serum (PAN-Biotech GmbH), 100 μg/500 ml gentamycin (Lonza Group Ltd.), and 1% essential non essential amino acids (Sigma-Aldrich Co. LLC.).
(§4) In general, cells were seeded as at a density of 0.313e4-5.000e4 cells per 1 ml of cell suspension in growth medium, dispensed in to a SPL 24-Well Cell Culture Plate (SPL Life Sciences Co., Ltd.) in replicates of 3, each containing Academy Circular Cover Slips (Academy Science) and incubated overnight at 37° C. at 5% CO2. […]

The subject of test [3] is Porcine Respiratory and Reproductive Syndrome Virus (PRRSV). In words: Virucidal effect on PRRSV, virus/treatment titration read by immunofluorescence. The test is classed as cell-based. The settings on record: 200 mM. The protocol: as §1
MARC145 cells were obtained from the Centre of Cell Cultures, Istituto Zooprofilattico Sperimentale Brescia, Italy and were maintained in Minimum Essential Medium (MEM) cell culture medium (Thermo Fisher Scientific Inc.) containing 2 mM L-Glutamine (Gibco Life Technologies Ltd.), 10% foetal calf serum (PAN-Biotech GmbH), and 100 μg/500 ml gentamycin (Lonza Group Ltd.).
as §4

The test system of test [4] is porcine circovirus (PCV2). In words: Virucidal effect on PCV2 in PK15A cells. It counts as cell-based, Porcine circovirus type 2. The following applies: at either 100 or 200 mM.
For test [5], the system named is Porcine Rotavirus. In words: Virucidal effect on porcine rotavirus in MA104 cells. It counts as cell-based. The settings on record: for Titre: incubation 30 mins, DMSO ✓, control titres ETOH −4, PBS −4. On the procedure: as §1
MA104 cells were obtained from ECACC and were maintained in Minimum Essential Medium (MEM) cell culture medium (Thermo Fisher Scientific Inc.) containing 2 mM L-Glutamine (Gibco Life Technologies Ltd.), 10% foetal calf serum (PAN-Biotech GmbH), and 100 μg/500 ml gentamycin (Lonza Group Ltd.).
as §2, §3
Prior to treatment, the cells and coverslips were washed three times with Minimum Essential Medium (MEM) cell culture medium (Thermo Fisher Scientific Inc.) containing 2 mM L-Glutamine (Gibco Life Technologies Ltd.), and 100 μg/500 ml gentamycin (Lonza Group Ltd.). […]

For `CCCCCCCCCC(=O)O` [Decanoic Acid/Capric C10 (1M), Decanoic Acid], in the test with Porcine Rotavirus [1], the “Result Replicate 2” value is on record as −1 and the “Result Replicate 3” value is “−ve”.
As to `CCCC(=O)O` [Butyric Acid C4 (1M), Butyric Acid], in the test with Porcine Rotavirus [1], the “Result Replicate 2” value was “−ve” and the “Result Replicate 3” value is reported as “−ve”.
Turning to `CCCC(=O)[O-].[Na+]` [Treatment A, Sodium butyrate], the reduction in titre in test [2] stood at 4 log10; in test [3], 3.5 log10; with Porcine Rotavirus [5] (200 mM) it was 2 log 10. The “susceptibility of virus to treatment” value in test [4] is “not susceptible”. Further, the Titre in the test on Porcine Rotavirus [5] (Expt 1, FA conc 100 mM) is reported as −4; with Porcine Rotavirus [5] (Expt 2, FA conc 200 mM), −2.
Take `CCCCCCCC(=O)O` [Octanonic Acid/Caprylic C8 (1M), octanoic acid]: in the test with Porcine Rotavirus [1], the “Result Replicate 2” value is −2 and the “Result Replicate 3” value is reported as −1.
For `CCCCCCCCCCCC(=O)O` [Dodecanoic acid/Lauric C12 (1M), Dodecanoic acid], in that order: “−ve” and −1.
